Source: US10202332B2, “Method for preparing 2-amino-N-(2,2,2-trifluoroethyl) acetamide” (E. I. du Pont de Nemours and Company, priority 2010, dated 2019)

Assay: Stability comparison for free base and salts: weight gain or loss on exposure to air in the laboratory
Type: physicochemical
Settings: for hygroscopicity (in words): handling, exposure to air
Procedure: To further characterize the stability of the free amine and salts of 2-amino-N-(2,2,2-trifluoroethyl)acetamide the following experiments were performed. Samples of the free amine and salts were exposed to air in the laboratory for a period of time. Weight […] or loss compared to the original sample was determined

sensitivity to air (in words) | % Weight gain (loss) (3 days in ambient atmosphere, parentheses = loss) [%] | weight gain upon exposure to the ambient atmosphere (in words) | hygroscopicity (in words) | Compound
sensitive to air | 4.65 | showed weight gain | hygroscopic | NCC(=O)NCC(F)(F)F [Free base, 2-amino-N-(2,2,2-trifluoroethyl)acetamide]
– | – | did not | not hygroscopic | Cl.NCC(=O)NCC(F)(F)F [Hydrochloride, 2-amino-N-(2,2,2-trifluoroethyl)acetamide hydrochloride]
